Where two headings read alike, the source gives them in different places.
What was measured:
in vitro [1] = assay type: cell-based, human; details: human
in vitro [2] = assay type: cell-based, human; details: human; remark: listed apart in the source
HFF cells = experiment: in vitro; assay type: cell-based, human
[3] = tested on: Herpes Simplex Virus 2 (HSV-2), MS strain; experiment: Plaque reduction assay for HSV-2 in HFF cells; assay type: cell-based; details: for EC50: read-out: HSV-2 EC50; for EC90: read-out: HSV-2 EC90
[4] = tested on: Herpes Simplex Virus 1 (HSV-1), E-377 strain; experiment: Plaque reduction assay for HSV-1 in HFF cells; assay type: cell-based; details: for EC50: read-out: HSV-1 EC50; for EC90: read-out: HSV-1 EC90
[5] = tested on: Epstein-Barr Virus (EBV), Akata; experiment: DNA hybridization assay for EBV in Akata cells; assay type: cell-based; details: 72 h; for EC50: read-out: EBV EC50; for EC90: read-out: EBV EC90
Akata cells = experiment: in vitro; assay type: cell-based, human
[6] = tested on: Human Cytomegalovirus (HCMV), AD169 strain; experiment: Plaque reduction assay for HCMV in HFF cells; assay type: cell-based; details: for EC50: read-out: HCMV EC50, control is GCV; for EC90: read-out: HCMV EC90, control is GCV
[7] = Enzymatic hydrolysis in cornea homogenate; details: 100 μM prodrug, 0.5mg/mL protein, 34°C
HCEC cells = experiment: Cellular uptake study on HCEC cells; assay type: cell-based, human; details: sodium free DPBS, 37°C, relative to uptake with sodium
[8] = Enzymatic hydrolysis in iris-ciliary body; details: 100 μM prodrug, 34°C
[9] = Enzymatic hydrolysis in lens homogenate; details: 100 μM prodrug, 34°C
[10] = human gammaherpesvirus 4, Akata
[11] = Akata cells, viral DNA accumulation

| SMILES | CC50 (in vitro [1]) [µM] | CC50 (Akata cells) [µM] | EC50 ([3]; MS strain, HFF cells) [µM] | EC90 ([3]; MS strain, HFF cells) [µM] | EC50 ([4]; E-377 strain, HFF cells) [µM] | EC90 ([4]; E-377 strain, HFF cells) [µM] | EC50 [6] [µM] | EC90 [6] [µM] | EC50 [5, 11] [µM] | EC90 [5, 11] [µM] | CC50 (HFF cells) [µM] | Cornea Rate constant [7] | Uptake in the presence of a sodium free buffer (reduced to) (HCEC cells) [%] | further results |
| --- | --- | --- | --- | --- | --- | --- | --- | --- | --- | --- | --- | --- | --- | --- |
| Nc1nc(O)c2ncn(COC(CO)CO)c2n1 [GCV, Ganciclovir, reference compound] | > 100 |  |  |  |  |  |  |  |  |  |  |  |  |  |
| Nc1nc2c(ncn2COCCO)c(=O)[nH]1 [ACV, Acyclovir, reference compound] | > 100 |  |  |  |  |  |  |  |  |  |  |  |  | CC50 (in vitro [2]): > 100 µM; CC50 (HFF cells; human): > 100 µM; EC50 ([3]; Human alphaherpesvirus 2, HFF): 5.98 µM; EC90 ([3]; Human alphaherpesvirus 2, HFF): > 100 µM; EC50 ([4]; Human alphaherpesvirus 1, HFF): 3.43 µM; EC90 ([4]; Human alphaherpesvirus 1, HFF): > 100 µM; EC50 [5, 10]: 12.4 µM; EC90 [5, 10]: 67.3 µM |
| CCCCCCC(O)CCCCCCCCCCC(=O)OCCOCn1cnc2c(=O)[nH]c(N)nc21 (stereo not shown) [12HS-ACV, 12hydroxystearicacid-acyclovir] |  | 47.3 | 0.41 | > 300 | 1.16 | 6.24 | 101 | 137 | 35.8 | 55 |  |  |  | Increase in antiviral activity against HSV-2 relative to ACV (by EC50) ([3]; from EC50 values): > 15 fold; Increase in antiviral activity against HSV-1 relative to ACV (by EC50) ([4]; from EC50 values): greater than 3 fold |
| CCCCCCC(CCCCCCCCCCC(=O)OCCOCn1cnc2c(=O)[nH]c(N)nc21)OC(=O)CCCC[C@@H]1SC[C@@H]2NC(=O)N[C@@H]21 (stereo partly shown) [B-12HS-ACV, Biotin-12hydroxystearicacid-acyclovir] |  | > 60 | < 0.096 | 4.65 | < 0.096 | 0.42 | > 300 | > 300 | 37.2 | > 60 | > 300 | 1.78 ± 0.29 k×10^3 min^−1 mg protein^-1 | ~41 |  |
| CCCCCCC(O)CC=CCCCCCCCC(=O)OCCOCn1cnc2c(=O)[nH]c(N)nc21 (stereo not shown) [R-ACV, Ricinoleicacid-acyclovir] |  | > 60 | 3.4 | 8.89 | 8.3 | 168 | 46.5 | > 300 | 10.7 | 49.5 | > 300 |  |  |  |
| Nc1nc2c(ncn2COCCOC(=O)CCCC[C@@H]2SC[C@@H]3NC(=O)N[C@@H]32)c(=O)[nH]1 [B-ACV, Biotin-acyclovir] |  | > 60 | > 300 | > 300 | 182 | > 300 |  |  | 22.3 | 52.8 |  | 1.99 ± 0.21 k×10^3 min^−1 mg protein^-1 | ~45 | Degradation in ICB homogenate (in words) [8]: complete degradation; Cornea Half-life [7]: 5.80 ± 0.49 h; Degradation in lens homogenate (in words) [9]: complete degradation |

Source: publication PMC3746831 (Pharmaceutical research, 2013)
